The subject of one assay is NK-YS. The assay is described as follows: drug sensitivity score (viability inhibition); higher = more sensitive. Conditions: 72 h; IL2 2.5 ng/ml. As for the experimental part: (§1)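 NK-cell leukemia/lymphoma cell lines (3,000 cells/well) were cultured with IL2 2.5 ng/ml in 384-well drug plates (5-8 concentrations over a 10,000-fold range) for 72 h at 37 C; viability was read with CellTiter-Glo. DSS is a normalised area under the dose-response curve; the experiment was repeated twice.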

A further assay has as its system KAI3. The description is as above. Conditions: 72 h; IL2 2.5 ng/ml. As for the experimental part: as §1
Another assay deals with NK-92. The assay is described as above. Conditions: 72 h; IL2 2.5 ng/ml. As for the experimental part:
as §1

A further assay deals with SNK6. The assay is described as above. Conditions: 72 h; IL2 2.5 ng/ml. As for the experimental part:
as §1

Another assay deals with KHYG-1. The description is as above. Conditions: 72 h; IL2 2.5 ng/ml. As for the experimental part:
as §1

The next assay relates to NKL. The description is as above. Conditions: 72 h; IL2 2.5 ng/ml. As for the experimental part:
as §1

In another assay the test system is YT. The description is as above. The conditions noted are these: 72 h; IL2 2.5 ng/ml. As for the experimental part:
as §1

The next assay relates to HEK293-SIE STAT3 WT. The assay is described as follows: drug sensitivity score (inhibition of STAT3 luciferase reporter); higher = stronger inhibition. The conditions noted are these: 6 h; STAT3: WT; IL6 100 ng/ml. As for the experimental part:
(§2)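 HEK293 cells with a STAT3-inducible (SIE) luciferase reporter, stably expressing WT STAT3 (IL6 100 ng/ml) or Y640F STAT3 (no IL6), were incubated 6 h with drugs in 384-well plates (5-8 concentrations over a 10,000-fold range); luciferase was read with ONE-Glo. DSS is a normalised area under the dose-response curve; values are the mean of two experiments.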

Another assay has as its system HEK293-SIE STAT3 Y640F. The description is as above. The conditions noted are these: 6 h; IL6 0 ng/ml. As for the experimental part:
as §2

As to `FC(F)c1nc2ccccc2n1-c1nc(N2CCOCC2)nc(N2CCOCC2)n1` [ZSTK474], the drug sensitivity score was found to be 9.54 DSS in the assay on NK-YS; 5.42 DSS in the assay with KAI3; 12.8 DSS with NK-92; 7.75 DSS in the assay with SNK6; 2.23 DSS with KHYG-1; 9.94 DSS in the assay with NKL. In addition, the drug sensitivity score with YT was 7.9 DSS; with HEK293-SIE STAT3 WT, 2.77 DSS; in the assay on HEK293-SIE STAT3 Y640F, 4.7 DSS.
Regarding `CN(Cc1cnc2nc(N)nc(N)c2n1)c1ccc(C(=O)N[C@@H](CCC(=O)O)C(=O)O)cc1` [Methotrexate], the drug sensitivity score in the assay with NK-YS was 18.8 DSS; in the assay on KAI3, 12.8 DSS; in the assay on NK-92, 12.2 DSS; in the assay on SNK6, 21.2 DSS; with KHYG-1, 15.1 DSS; in the assay with NKL it was 8.04 DSS. Besides, the results for the drug sensitivity score in the assay with YT, with HEK293-SIE STAT3 WT and with HEK293-SIE STAT3 Y640F were 15.8 DSS, 1.4 DSS and 0.233 DSS, respectively.
`COc1cc2c(cc1-c1c(C)noc1C)ncc1[nH]c(=O)n([C@H](C)c3ccccn3)c12` [I-BET151]: the drug sensitivity score in the assay with NK-YS is 12.2 DSS; in the assay with KAI3 it was 4.86 DSS; in the assay with NK-92, 1.34 DSS; in the assay on SNK6, 11.6 DSS; in the assay on KHYG-1, 13.3 DSS; with NKL, 8.89 DSS. The drug sensitivity score in the assay with YT came out at 7.05 DSS; in the assay on HEK293-SIE STAT3 WT, 11.5 DSS; in the assay on HEK293-SIE STAT3 Y640F, 4.4 DSS.
Turning to `C[C@]12O[C@H](C[C@]1(O)CO)n1c3ccccc3c3c4c(c5c6ccccc6n2c5c31)CNC4=O` [Lestaurtinib], the drug sensitivity score in the assay with NK-YS came to 12.4 DSS; in the assay with KAI3, 18.3 DSS; with NK-92, 14.3 DSS; in the assay on SNK6, 13 DSS; in the assay with KHYG-1, 22 DSS; in the assay with NKL, 14.6 DSS. For the same compound, the drug sensitivity score was 13.5 DSS in the assay on YT, 20.7 DSS with HEK293-SIE STAT3 WT and 10.8 DSS with HEK293-SIE STAT3 Y640F.
`CNC(=O)c1cc(Oc2ccc(NC(=O)Nc3ccc(Cl)c(C(F)(F)F)c3)c(F)c2)ccn1` [Regorafenib]: the drug sensitivity score in the assay on NK-YS stood at 7.25 DSS; in the assay with KAI3, 2.25 DSS; with NK-92, 8.97 DSS; in the assay with SNK6, 10.1 DSS; in the assay with KHYG-1, 6.89 DSS; in the assay with NKL, 5.14 DSS. Moreover, the drug sensitivity score with YT turned out to be 8.71 DSS; with HEK293-SIE STAT3 WT, 6.65 DSS; in the assay with HEK293-SIE STAT3 Y640F it was 5.5 DSS.
For the compound `COc1ccc(-c2cc3c(C)nc(N)nc3n([C@H]3CC[C@H](OCCO)CC3)c2=O)cn1`, the drug sensitivity score with NK-YS came out at 15 DSS; with KAI3 it was 9.49 DSS; in the assay on NK-92 it was 19.2 DSS; in the assay with SNK6, 5.96 DSS; with KHYG-1, 13.9 DSS; with NKL, 15.4 DSS. For the same compound, the values for the drug sensitivity score with YT, in the assay with HEK293-SIE STAT3 WT and with HEK293-SIE STAT3 Y640F were 16.1 DSS, 14.9 DSS and 9.1 DSS, respectively.
Consider `Cc1sc2c(c1C)C(c1ccc(Cl)cc1)=N[C@@H](CC(=O)OC(C)(C)C)c1nnc(C)n1-2` [(+)-JQ1], for which the drug sensitivity score in the assay with NK-YS is 15.9 DSS; in the assay on KAI3, 4.93 DSS; in the assay with NK-92 it was 3.16 DSS; with SNK6, 12.4 DSS; in the assay with KHYG-1, 18.9 DSS; in the assay on NKL, 13.7 DSS. Moreover, the results for the drug sensitivity score in the assay with YT, in the assay on HEK293-SIE STAT3 WT and with HEK293-SIE STAT3 Y640F were 11.1 DSS, 16.6 DSS and 0 DSS, respectively.
For `COc1cc(Nc2c(C#N)cnc3cc(OCCCN4CCN(C)CC4)c(OC)cc23)c(Cl)cc1Cl` [Bosutinib], the drug sensitivity score was determined as 5.25 DSS in the assay with NK-YS; 6.47 DSS in the assay with KAI3; 7.49 DSS with NK-92; 5.08 DSS in the assay on SNK6; 7.49 DSS with KHYG-1; 5.37 DSS in the assay with NKL. Further, the figures for the drug sensitivity score with YT, in the assay on HEK293-SIE STAT3 WT and in the assay with HEK293-SIE STAT3 Y640F were 5.38 DSS, 0.775 DSS and 8.4 DSS, respectively.
In the case of `CC(C)n1nc(-c2ccc3oc(N)nc3c2)c2c(N)ncnc21` [INK128], the drug sensitivity score with NK-YS stood at 11.8 DSS; in the assay with KAI3, 7.66 DSS; with NK-92, 10.7 DSS; in the assay with SNK6 it was 8.08 DSS; with KHYG-1 it was 7.21 DSS; in the assay with NKL it was 16.2 DSS. Also, the drug sensitivity score was determined as 11.9 DSS in the assay on YT, 13.8 DSS in the assay on HEK293-SIE STAT3 WT and 12 DSS in the assay on HEK293-SIE STAT3 Y640F.
As to `Cc1c2oc3c(C)ccc(C(=O)N[C@@H]4C(=O)N[C@H](C(C)C)C(=O)N5CCC[C@H]5C(=O)N(C)CC(=O)N(C)[C@@H](C(C)C)C(=O)O[C@@H]4C)c3nc-2c(C(=O)N[C@@H]2C(=O)N[C@H](C(C)C)C(=O)N3CCC[C@H]3C(=O)N(C)CC(=O)N(C)[C@@H](C(C)C)C(=O)O[C@@H]2C)c(N)c1=O` [Dactinomycin], the drug sensitivity score came to 38.2 DSS in the assay with NK-YS; 23.8 DSS in the assay on KAI3; 16.5 DSS in the assay with NK-92; 32.2 DSS with SNK6; 29.3 DSS in the assay on KHYG-1; 36.5 DSS with NKL. In addition, the results for the drug sensitivity score with YT, in the assay on HEK293-SIE STAT3 WT and in the assay on HEK293-SIE STAT3 Y640F were 35 DSS, 18.9 DSS and 18.4 DSS, respectively.
On to `O=C(Cc1ccc(-c2ccc(OCCN3CCOCC3)cc2)cn1)NCc1ccccc1` [KX2-391], for which the drug sensitivity score with NK-YS is 28.1 DSS; in the assay on KAI3 it was 22.4 DSS; in the assay with NK-92, 32.4 DSS; in the assay on SNK6 it was 31.7 DSS; with KHYG-1 it was 31.6 DSS; in the assay on NKL it was 31.2 DSS. The drug sensitivity score is 31.7 DSS in the assay with YT, 0 DSS in the assay with HEK293-SIE STAT3 WT and 0 DSS in the assay with HEK293-SIE STAT3 Y640F.
As for `Cc1ccc(C(=O)Nc2ccc(CN3CCN(C)CC3)c(C(F)(F)F)c2)cc1C#Cc1cnc2cccnn12` [Ponatinib], the drug sensitivity score with NK-YS worked out at 2.28 DSS; in the assay with KAI3, 3.2 DSS; in the assay on NK-92, 1.39 DSS; in the assay with SNK6, 0 DSS; in the assay with KHYG-1 it was 3.2 DSS; in the assay on NKL it was 4.93 DSS. The drug sensitivity score in the assay with YT was determined as 4.26 DSS; with HEK293-SIE STAT3 WT, 2.95 DSS; in the assay on HEK293-SIE STAT3 Y640F, 2.8 DSS.
On to `NS(=O)(=O)c1cccc2c1C(=O)c1cccc(O)c1C2=O` [LLL12], for which the drug sensitivity score in the assay on NK-YS was determined as 15 DSS; in the assay with KAI3, 18.9 DSS; in the assay on NK-92 it was 23.1 DSS; with SNK6 it was 28 DSS; in the assay on KHYG-1, 22.9 DSS; with NKL, 24.9 DSS. Further, the drug sensitivity score in the assay with YT worked out at 18.2 DSS; in the assay on HEK293-SIE STAT3 WT, 17.1 DSS; in the assay on HEK293-SIE STAT3 Y640F, 12.4 DSS.
Turning to `COC(=O)C[C@](O)(CCCC(C)(C)O)C(=O)O[C@@H]1C(OC)=C[C@]23CCCN2CCc2cc4c(cc2[C@H]13)OCO4` [homoharringtonine], the drug sensitivity score in the assay with NK-YS came to 32.5 DSS; in the assay with KAI3, 33.4 DSS; in the assay with NK-92 it was 31.2 DSS; in the assay on SNK6 it was 34.6 DSS; in the assay on KHYG-1, 29.6 DSS; in the assay on NKL, 32.2 DSS. Also, the drug sensitivity score in the assay with YT was determined as 34.5 DSS; in the assay with HEK293-SIE STAT3 WT, 39 DSS; in the assay on HEK293-SIE STAT3 Y640F, 36.6 DSS.

The record behind these values is the supplement of paper PMC5722580.
